Results taken from patent publication US11147818B2, “Combination therapies” (Infinity Pharmaceuticals, Inc., priority 2016, dated 2021).

Key:
Test in all cases: Combination study of Compound 1 with selinexor, ATPLite cell growth/viability, 9x9 dose matrix
Format in all cases: cell-based
Conditions in all cases: Compound 1 in combination with Selinexor, 72 hours
H9 cell line = test system: H9 cell line
Protocol: (§1) The synergistic effects of compounds provided herein and another therapeutic agent were carried out. The method is described as follows. Cells were thawed from a liquid nitrogen preserved state. Once cells were expanded and divided at their expected doubling times, screening began. Cells were seeded in growth media in either black 1536-well or 384-well tissue culture treated plates. Cells were then equilibrated in assay plates via centrifugation and placed in incubators attached to the Dosing Modules at 37° C. for 24 hours before treatment. […] These Tzero (To) plates were read using ultra-sensitive luminescence on Envision plate readers (Perkin Elmer). Treated assay plates were incubated with compound for 72 hours. After 72 hours, plates were developed for endpoint analysis using ATPLite. All data points were collected via automated processes, quality controlled and analyzed using Zalicus software. Assay plates were accepted if they passed the following quality control standards: relative luciferase values were consistent throughout the entire experiment, Z-factor scores were greater than 0.6, untreated/vehicle controls behaved consistently on the plate.
Inhibition (I) is defined as I=(1−T/V)*100% where T is treated cell count and V is untreated (vehicle) cell count (at 72 hours). I ranges from 0% (when T=V) to 100% (when T=0). The IC50 value is defined as the drug concentration needed to inhibit 50% of the cell growth compared to growth of the vehicle treated cells (the drug concentration which gives I=50%). The measure of effect in the experiment can be the inhibition of cellular response relative to the untreated level (vehicle alone). For untreated vehicle and treated levels V and T, a fractional inhibition I=1-T/V is calculated. […] When activity ratios (e.g., fold increase over stimulated control) are being used, the effect can be measured using an induction I=ln(T/V). […]
Growth Inhibition (GI) is used as a measure of cell viability. The cell viability of vehicle is measured at the time of dosing (TO) and after 72 hours (T72). A GI reading of 0% represents no growth inhibition—T72 compound-treated and T72 vehicle signals are matched. A GI reading of 100% represents complete growth inhibition—T72 compound-treated and TO vehicle signals are matched. […] A GI reading of 200% represents complete death of all cells in the culture well. […] GI is calculated by applying the following test and equation: […]
Combination analysis data were collected in a 9×9 dose matrix. Synergy was calculated by comparing a combination's response to those of its single compound, against the drug-with-itself dose-additive reference model. Deviations from dose additivity may be assessed visually on an isobologram or numerically with a Combination Index (CI). […]

HH cell line = test system: HH cell line
Protocol: as §1
(§2) Inhibition (I) is defined as I=(1−T/V)*100% where T is treated cell count and V is untreated (vehicle) cell count (at 72 hours). I ranges from 0% (when T=V) to 100% (when T=0). The IC50 value is defined as the drug concentration needed to inhibit 50% of the cell growth compared to growth of the vehicle treated cells (the drug concentration which gives I=50%). The measure of effect in the experiment can be the inhibition of cellular response relative to the untreated level (vehicle alone). For untreated vehicle and treated levels V and T, a fractional inhibition I=1-T/V is calculated. The inhibition ranges from 0% at the untreated level to 100% when T=0. Inhibition levels are negative for agents that actually increase levels. Other effect measures, such as an activity ratio r=T/V may be more appropriate for some assays. When activity ratios (e.g., fold increase over stimulated control) are being used, the effect can be measured using an induction I=ln(T/V). With this definition, all effect expressions are the same as for inhibition.
(§3) Growth Inhibition (GI) is used as a measure of cell viability. The cell viability of vehicle is measured at the time of dosing (TO) and after 72 hours (T72). A GI reading of 0% represents no growth inhibition—T72 compound-treated and T72 vehicle signals are matched. A GI reading of 100% represents complete growth inhibition—T72 compound-treated and TO vehicle signals are matched. […] A GI reading of 200% represents complete death of all cells in the culture well. Compounds reaching an activity plateau of GI 200% are considered cytotoxic. GI is calculated by applying the following test and equation:
(§4) [formula] [formula] where T is the signal measure for a test article, V is the vehicle-treated control measure, and Vo is the vehicle control measure at time zero. This formula is derived from the Growth Inhibition calculation used in the National Cancer Institute's NCI-60 high-throughput screen.
(§5) Combination analysis data were collected in a 9×9 dose matrix. Synergy was calculated by comparing a combination's response to those of its single compound, against the drug-with-itself dose-additive reference model. Deviations from dose additivity may be assessed visually on an isobologram or numerically with a Combination Index (CI). See the tables below for CI at 50% inhibition and CI at 50% growth inhibition. Additive effect is CI=1.0. Synergistic effect is CI<1. Antagonistic effect is CI>1.0.
(§6) To measure combination effects in excess of Loewe additivity, a scalar measure to characterize the strength of synergistic interaction termed the Synergy Score was devised. […]

HuT 78 cell line = test system: HuT 78 cell line
Protocol: as §1, §2, §3, §4, §5, §6

HuT 102 cell line = test system: HuT 102 cell line
Protocol: as §1, §2, §3, §4, §5, §6

MJ (G11) cell line = test system: MJ (G11) cell line
Protocol: as §1, §2, §3, §4, §5, §6

For `O=C(/C=C\n1cnc(-c2cc(C(F)(F)F)cc(C(F)(F)F)c2)n1)NNc1cnccn1` [Selinexor, (Z)-3-(3-(3,5-bis(trifluoromethyl)phenyl)-1H-1,2,4-triazol-1-yl)—N′-(pyrazin-2-yl)acrylohydrazide], the CI50 growth inhibition (H9 cell line) was “A3 (A3=>3)”, the CI50 inhibition (H9 cell line) was “A3 (A3=>3)” and the “Synergy Score growth inhibition” value (H9 cell line) was 10.4. For the same molecule, the “Synergy Score inhibition” value (H9 cell line) was 3.23, the CI50 growth inhibition (HH cell line) was “A2 (A2=1 to <3)” and the CI50 inhibition (HH cell line) was “A2 (A2=1 to <3)”. For the same molecule, the “Synergy Score growth inhibition” value (HH cell line) was 1.53, the “Synergy Score inhibition” value (HH cell line) was 1.25 and the CI50 growth inhibition (HuT 78 cell line) was “A3 (A3=>3)”. For the same molecule, the CI50 inhibition (HuT 78 cell line) was “A2 (A2=1 to <3)”, the “Synergy Score growth inhibition” value (HuT 78 cell line) was 5.85 and the “Synergy Score inhibition” value (HuT 78 cell line) was 1.94. The CI50 inhibition (HuT 102 cell line) was “A1 (A1=0.0001 to <1)”, the “Synergy Score inhibition” value (HuT 102 cell line) was 0.82 and the CI50 growth inhibition (MJ (G11) cell line) was “A3 (A3=>3)”. For the same molecule, the CI50 inhibition (MJ (G11) cell line) was “A2 (A2=1 to <3)”, the “Synergy Score growth inhibition” value (MJ (G11) cell line) was 4.50 and the “Synergy Score inhibition” value (MJ (G11) cell line) was 1.50.
